Measured values: patent publication US9434743B2, “Indazole derivatives” (TAKEDA PHARMACEUTICAL COMPANY LIMITED, priority 2012, dated 2016)

Columns and labels:
human MetAP2 enzyme [1] = biological target: T1, human MetAP2 enzyme (Homo sapiens, UniProt P50579); assay: MetAP2 enzyme assay, enzyme complexed with manganese ions; conditions: MetAP2 Mn pIC50, MetAP2 enzyme complexed with manganese ions; Met-AMC substrate at Km
human MetAP2 enzyme [2] = biological target: T1, human MetAP2 enzyme; assay: MetAP2 enzyme assay, enzyme complexed with cobalt ions; conditions: MetAP2 Co pIC50, MetAP2 enzyme complexed with cobalt ions; Met-AMC substrate at Km
Description: DNA encoding the full-length sequence of human MetAP2 enzyme is amplified by PCR and cloned into a pFastBac expression vector (Invitrogen). Recombinant baculovirus incorporating the MetAP2 construct is generated by transposition using the Bac-to-Bac system (Invitrogen). The expression of recombinant protein is carried out by infection of Spodoptera frugiperda Sf9 cells (Invitrogen) in 5 L Wave Bioreactors (Wave Biotech). Recombinant protein is isolated from cellular extracts by binding to an SP Hitrap Fast Flow or SP Sepharose (Sigma) column, and the protein is eluted using a NaCl gradient. Partially purified extracts of MetAP2 are further purified by an AKTA FPLC over a Superdex-200 column (GE). The purity of MetAP2 protein is determined on denaturing SDS-PAGE gel.
The results for each well are expressed as percent inhibition and calculated using the equation:

T1 sequence (P50579 whole entry): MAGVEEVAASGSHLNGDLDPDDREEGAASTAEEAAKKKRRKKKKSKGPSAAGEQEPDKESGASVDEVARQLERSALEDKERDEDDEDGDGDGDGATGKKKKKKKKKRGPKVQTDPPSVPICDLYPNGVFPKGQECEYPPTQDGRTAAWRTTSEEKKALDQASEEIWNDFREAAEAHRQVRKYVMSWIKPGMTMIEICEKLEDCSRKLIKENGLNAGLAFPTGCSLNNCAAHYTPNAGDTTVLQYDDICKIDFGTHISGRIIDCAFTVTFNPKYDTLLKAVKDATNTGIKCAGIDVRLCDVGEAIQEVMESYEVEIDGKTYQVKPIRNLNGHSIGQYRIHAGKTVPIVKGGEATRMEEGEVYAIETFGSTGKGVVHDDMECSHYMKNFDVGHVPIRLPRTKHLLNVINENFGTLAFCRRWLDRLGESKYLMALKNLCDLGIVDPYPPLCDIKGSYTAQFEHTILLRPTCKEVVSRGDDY

Structure (SMILES) | IC50 (human MetAP2 enzyme [1]) | IC50 (human MetAP2 enzyme [2])
COc1nccc(-c2cc(C(F)(F)F)cc3[nH]ncc23)c1Cl [Example 124, 4-(3-chloro-2-methoxypyridin-4-yl)-6-(trifluoromethyl)-1H-indazole] | 15.8 nM | 63.1 nM
FC(F)(F)c1cc(-c2ncn3ccccc23)c2cn[nH]c2c1 [Example 154, 4-(imidazo[1,5-a]pyridin-1-yl)-6-(trifluoromethyl)-1H-indazole] | 15.8 nM | 100 nM
FC(F)(F)c1cc(-c2cccc3ncccc23)c2cn[nH]c2c1 [Example 101, 5-(6-(trifluoromethyl)-1H-indazol-4-yl)quinoline] | 10 nM | 31.6 nM
Cc1ccc(C(=O)N2CCC(O)CC2)cc1-c1cc(C(F)(F)F)cc2[nH]ncc12 [Example 372, (4-hydroxypiperidin-1-yl)(4-methyl-3-(6-(trifluoromethyl)-1H-indazol-4-yl)phenyl)methanone] | 31.6 nM | 100 nM
COc1ccn2c(-c3cc(C(F)(F)F)cc4[nH]ncc34)cnc2c1C#N [Example 160, 7-methoxy-3-(6-(trifluoromethyl)-1H-indazol-4-yl)imidazo[1,2-a]pyridine-8-carbonitrile] | 39.8 nM | 79.4 nM
Cc1nc(N2CCCC2)ccc1-c1cc(C(F)(F)F)cc2[nH]ncc12 [Example 384, 4-(2-methyl-6-(pyrrolidin-1-yl)pyridin-3-yl)-6-(trifluoromethyl)-1H-indazole] | 15.8 nM | 79.4 nM
Cn1cc(-c2cc(C(F)(F)F)cc3[nH]ncc23)c(=O)[nH]c1=O [Example 278, 1-methyl-5-(6-(trifluoromethyl)-1H-indazol-4-yl)pyrimidine-2,4(1H,3H)-dione] | 10 nM | 631 nM

Further molecules by falling IC50 (human MetAP2 enzyme [1]), results first:

IC50 (human MetAP2 enzyme [1]) | IC50 (human MetAP2 enzyme [2]) | Structure (SMILES)
10 nM | 25.1 nM | CC(=O)Nc1cc(C)c(-c2cc(C(F)(F)F)cc3[nH]ncc23)cn1 [Example 179, N-(4-methyl-5-(6-(trifluoromethyl)-1H-indazol-4-yl)pyridin-2-yl)acetamide]
10 nM | 398 nM | FC(F)(F)c1cc(-c2cc[nH]n2)c2cn[nH]c2c1 [Example 13, 4-(1H-pyrazol-3-yl)-6-(trifluoromethyl)-1H-indazole]
7.94 nM | 79.4 nM | COc1ncc(N)cc1-c1cc(C(F)(F)F)cc2[nH]ncc12 [Example 187, 6-methoxy-5-(6-(trifluoromethyl)-1H-indazol-4-yl)pyridin-3-amine]
7.94 nM | 25.1 nM | Cc1nc(N)ccc1-c1cc(C(F)(F)F)cc2[nH]ncc12 [Example 255, 6-methyl-5-(6-(trifluoromethyl)-1H-indazol-4-yl)pyridin-2-amine]
6.31 nM | 63.1 nM | CNc1ncc(-c2cc(C(F)(F)F)cc3[nH]ncc23)cn1 [Example 196, N-methyl-5-(6-(trifluoromethyl)-1H-indazol-4-yl)pyrimidin-2-amine]
6.31 nM | 158 nM | CN1CCN(C(=O)c2c[nH]c(=O)c(-c3cc(C(F)(F)F)cc4[nH]ncc34)c2)CC1 [Example 297, 5-(4-methylpiperazine-1-carbonyl)-3-(6-(trifluoromethyl)-1H-indazol-4-yl)pyridin-2(1H)-one]
6.31 nM | 100 nM | FC(F)(F)c1cc(-c2cn[nH]c2)c2cn[nH]c2c1 [Example 23, 4-(1H-pyrazol-4-yl)-6-(trifluoromethyl)-1H-indazole]
5.01 nM | 63.1 nM | COc1cc(-c2cc(C(F)(F)F)cc3[nH]ncc23)c(OC)nn1 [Example 248, 4-(3,6-dimethoxypyridazin-4-yl)-6-(trifluoromethyl)-1H-indazole]
3.98 nM | 10 nM | Cc1nc(N2CCN[C@H](C)C2)ccc1-c1cc(C(F)(F)F)cc2[nH]ncc12 [Example 414, (R)-4-(2-methyl-6-(3-methylpiperazin-1-yl)pyridin-3-yl)-6-(trifluoromethyl)-1H-indazole]
